Test results: article PMC5589648, “Acetyl-lupeolic acid inhibits Akt signaling and induces apoptosis in chemoresistant prostate cancer cells in vitro and in vivo” (Oncotarget, 2017)

Legend:
[1] = molecular target: T1, Akt3 (Homo sapiens, UniProt Q9Y243); assay: in vitro kinase assay, [γ-32P]ATP, GST-GSK-3β substrate; assay type: biochemical
T1 construct: active recombinant human Akt3

[2] = molecular target: T2, Akt1 (Homo sapiens, UniProt P31749); assay: as above; assay type: biochemical
T2 construct: active recombinant human Akt1
T2 sequence (P31749 whole entry): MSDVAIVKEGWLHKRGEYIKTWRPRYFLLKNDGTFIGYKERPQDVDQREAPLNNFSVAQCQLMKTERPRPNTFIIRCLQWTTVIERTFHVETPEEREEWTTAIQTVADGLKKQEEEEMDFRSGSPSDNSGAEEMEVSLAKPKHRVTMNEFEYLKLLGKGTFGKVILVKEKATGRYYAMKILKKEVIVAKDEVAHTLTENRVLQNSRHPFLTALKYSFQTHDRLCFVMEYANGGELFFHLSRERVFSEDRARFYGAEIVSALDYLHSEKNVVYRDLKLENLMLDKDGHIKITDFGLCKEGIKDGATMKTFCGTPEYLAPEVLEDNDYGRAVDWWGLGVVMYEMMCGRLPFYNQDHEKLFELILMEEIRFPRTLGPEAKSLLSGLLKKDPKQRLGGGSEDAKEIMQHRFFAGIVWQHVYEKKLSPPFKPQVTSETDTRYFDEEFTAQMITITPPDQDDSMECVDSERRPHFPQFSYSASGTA

T1 sequence (Q9Y243 2-479): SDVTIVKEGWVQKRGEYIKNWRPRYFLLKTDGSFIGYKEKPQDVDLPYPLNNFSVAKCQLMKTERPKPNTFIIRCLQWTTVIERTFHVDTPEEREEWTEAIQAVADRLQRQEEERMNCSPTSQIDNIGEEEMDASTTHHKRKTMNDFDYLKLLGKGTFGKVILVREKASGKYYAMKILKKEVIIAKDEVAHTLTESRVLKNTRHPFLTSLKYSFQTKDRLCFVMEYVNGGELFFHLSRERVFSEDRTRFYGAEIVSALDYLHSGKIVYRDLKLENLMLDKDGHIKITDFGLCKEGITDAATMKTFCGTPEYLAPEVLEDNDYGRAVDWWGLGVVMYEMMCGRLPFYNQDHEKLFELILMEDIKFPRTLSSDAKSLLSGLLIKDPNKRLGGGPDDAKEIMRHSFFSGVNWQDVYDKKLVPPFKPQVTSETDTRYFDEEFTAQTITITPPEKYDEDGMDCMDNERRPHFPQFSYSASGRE

## C=C(C)[C@@H]1CC[C@]2(C)CC[C@]3(C)[C@H](CC[C@@H]4[C@@]5(C)CC[C@H](O)C(C)(C)[C@@H]5CC[C@]43C)[C@@H]12 [lupeol]
[1]
  in vitro kinase assay, [γ-32P]ATP, GST-GSK-3β substrate: Compared to ac-LA, lupeol was about threefold less potent in the inhibition of Akt1 and Akt3 isoforms
[2]
  in vitro kinase assay, [γ-32P]ATP, GST-GSK-3β substrate: Compared to ac-LA, lupeol was about threefold less potent in the inhibition of Akt1 and Akt3 isoforms
